Test results published in patent publication US11279733B2, “Peptide antibiotics” (priority 2017, dated 2022).
In brackets after ≈: the same amount, converted by molar mass. Where two headings read alike, the source gives them in different places. Positions of bridges follow the written chain, without caps; N, C: chain ends. Non-standard residues stand in square brackets, D forms with d. Residues, ends and D or L forms follow the SMILES beside them. *: point of attachment. Isonicotinoyl(2-Ph) = O=C(c1ccnc(-c2ccccc2)c1)*; Decanoyl(3R-OH) = CCCCCCC[C@@H](O)CC(=O)*; Butanoyl(4-OPh) = O=C(CCCOc1ccccc1)*; dDab = NCC[C@@H](N)C(=O)O; Dab = NCC[C@H](N)C(=O)O

What was measured:
A. baumannii ATCC 19606 = conditions: ATCC 19606
In short: (§1)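 Mid-log cultures grown in Mueller Hinton broth at 37° C were tested by 2-fold broth microdilution at 5×10^5 CFU/mL final. Compounds were dissolved in water and tested over a final range of 32 to 0.015 μg/mL.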

A. baumannii GN_093 PmxR = conditions: GN 093 PmxR
In short: as §1

E. coli ATCC 25922 = conditions: ATCC 25922
In short: as §1

K. pneumoniae ATCC 13883 = conditions: ATCC 13883
In short: as §1

[1] = system: K. pneumoniae ATCC 700603, MDR; conditions: ATCC 700603
In short: as §1

[2] = system: K. pneumoniae ATCC BAA-2146, NDM-1 pos; conditions: ATCC BAA-2146
In short: as §1

[3] = system: K. pneumoniae GN_102 PmxR; conditions: GN 102 PmxR
In short: as §1

[4] = system: K. pneumoniae GN_106, PmxR; conditions: GN 106, PmxR
In short: as §1

P. aeruginosa ATCC 27853 = conditions: ATCC 27853
In short: as §1

[5] = system: P. aeruginosa GN_043, PmxR
In short: as §1

[6] = system: P. aeruginosa GN_105, PmxR; conditions: GN 105, PmxR
In short: as §1

[7] = system: S. aureus ATCC 25923, MSSA; conditions: ATCC 25923
In short: as §1

in vitro [8] = conditions: human
In short: (§2)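 Fluorescence read-out (excitation 560, emission 590) after a 2 h, 37 °C incubation with 5 μM resazurin, following 24 h compound treatment of cells plated at 4000 per well. CC50 values come from fitting dose–response curves of growth inhibition.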

in vitro [9] = conditions: human; remark: listed apart in the source
In short: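 HK2 cells were seeded at 2000 per well in DMEM/F12 with 10% FBS and left to attach for 24 h at 37 °C, 5% CO2. They were then exposed for 24 h to 3-fold peptide dilutions starting from 600 μM solutions in quadruplicate. LDH release was read at 450 nm, and CC50 was fitted from dose-response curves.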

in vitro [10] = conditions: human; remark: listed apart in the source
In short: as §2

| SMILES | MIC A. baumannii ATCC 19606 (A. baumannii ATCC 19606) [mg/L] | MIC A. baumannii GN_093 PmxR (A. baumannii GN_093 PmxR) [mg/L] | MIC E. coli ATCC 25922 (E. coli ATCC 25922) [mg/L] | MIC K. pneumoniae ATCC 13883 (K. pneumoniae ATCC 13883) [mg/L] | MIC K. pneumoniae ATCC 700603, MDR [1] [mg/L] | MIC K. pneumoniae ATCC BAA-2146, NDM-1 pos [2] [mg/L] | MIC K. pneumoniae GN_102 PmxR [3] [mg/L] | MIC K. pneumoniae GN_106, PmxR [4] [mg/L] | MIC P. aeruginosa ATCC 27853 (P. aeruginosa ATCC 27853) [mg/L] | MIC P. aeruginosa GN_043, PmxR [5] [mg/L] | MIC P. aeruginosa GN_105, PmxR [6] [mg/L] | MIC S. aureus ATCC 25923, MSSA [7] [mg/L] | CC50 at 24 h (in vitro [8]) [µM] | CC50 at 24 h (in vitro [9]) [µM] | CC50 at 24 h (in vitro [10]) [µM] | MIC P. aeruginosa GN_043, PmxR ([5]; polymyxin-resistant) [mg/L] |
| --- | --- | --- | --- | --- | --- | --- | --- | --- | --- | --- | --- | --- | --- | --- | --- | --- |
| CC(C)C[C@@H]1NC(=O)[C@H](CCN)NC(=O)[C@H](CCN)NC(=O)[C@H](CC(C)C)NC(=O)[C@@H](Cc2ccccc2)NC(=O)[C@H](CCN)NC(=O)[C@@H](NC(=O)[C@@H](CCN)NC(=O)c2ccnc(-c3ccccc3)c2)CCNC1=O [compound 6525, 3Phe4-PyCO-D-Dab-cyc[L-Dab-L-Dab-D-Phe-L-Leu-L-Dab-L-Dab-L-Leu]] ({Isonicotinoyl(2-Ph)}-[dDab][Dab][Dab][dF]L[Dab][Dab]L; lactam 2-C) | >32 | >32 | 4 (≈ 3.79 µM) | 16 (≈ 15.2 µM) | 8 (≈ 7.58 µM) | 16 (≈ 15.2 µM) | 16 (≈ 15.2 µM) | >32 | 4 (≈ 3.79 µM) | 2 (≈ 1.9 µM) | 8 (≈ 7.58 µM) | >32 | > 300 | > 300 | > 300 | – |
| CC(C)C[C@@H]1NC(=O)[C@H](CCN)NC(=O)[C@H](CCN)NC(=O)[C@H](CC(C)C)NC(=O)[C@@H](Cc2ccccc2)NC(=O)[C@H](CCN)NC(=O)[C@@H](NC(=O)[C@@H](CCN)NC(=O)CCCOc2ccccc2)CCNC1=O [compound 6529, 4-phenoxybutanoic acid-D-Dab-cyc[L-Dab-L-Dab-D-Phe-L-Leu-L-Dab-L-Dab-L-Leu]] ({Butanoyl(4-OPh)}-[dDab][Dab][Dab][dF]L[Dab][Dab]L; lactam 2-C) | >32 | >32 | 8 (≈ 7.72 µM) | 16 (≈ 15.4 µM) | 32 (≈ 30.9 µM) | 32 (≈ 30.9 µM) | >32 | >32 | 2 (≈ 1.93 µM) | 1 (≈ 0.965 µM) | 16 (≈ 15.4 µM) | >32 | > 300 | 199 | > 300 | – |
| CCCCCCC[C@@H](O)CC(=O)N[C@H](CCN)C(=O)N[C@H]1CCNC(=O)[C@H](CC(C)C)NC(=O)[C@H](CCNC(=O)[C@@H](N)CCCNC(=N)N)NC(=O)[C@H](CCN)NC(=O)[C@H](CC(C)C)NC(=O)[C@@H](Cc2ccccc2)NC(=O)[C@H](CCN)NC1=O [compound 6653, 3(R)OH-nC9CO-D-Dab-cyc[L-Dab-L-Dab-D-Phe-L-Leu-L-Dab-L-Dab(L-Arg)-L-Leu]] ({Decanoyl(3R-OH)}-[dDab][Dab][Dab][dF]L[Dab][Dab](Arg)L; lactam 2-C) | 4 (≈ 3.33 µM) | 16 (≈ 13.3 µM) | 16 (≈ 13.3 µM) | 8 (≈ 6.66 µM) | 8 (≈ 6.66 µM) | 8 (≈ 6.66 µM) | >32 | 16 (≈ 13.3 µM) | 4 (≈ 3.33 µM) | – | 4 (≈ 3.33 µM) | 32 (≈ 26.7 µM) | > 300 | 64 | > 300 | 2 (≈ 1.67 µM) |
